Assay results published in publication PMC6906431, “Selective small molecule PARG inhibitor causes replication fork stalling and cancer cell death” (Nature Communications, 2019).

Assays:
[1] = Sulforhodamine B (SRB) cytotoxicity assay; conditions: human, PC3 cells, Viability; for viability at 72 h, 1.95 µM: log [concentration] μM 0.291; for viability at 72 h, 3.9 µM: log [concentration] μM 0.592; for viability at 72 h, 7.8 µM: log [concentration] μM 0.893; for viability at 72 h, 15.6 µM: log [concentration] μM 1.194; for viability at 72 h, 31.3 µM: log [concentration] μM 1.495; for viability at 72 h, 62.5 µM: log [concentration] μM 1.796; for viability at 72 h, 125 µM: log [concentration] μM 2.097; for viability at 72 h, 250 µM: log [concentration] μM 2.398; for viability at 72 h, 500 µM: log [concentration] μM 2.699; for viability at 72 h, 0.98 µM: log [concentration] μM -0.01; for viability at 72 h, 0.49 µM: log [concentration] μM -0.312; for viability at 72 h, 0.244 µM: log [concentration] μM -0.613
PC3 cells = experiment: Sulforhodamine B (SRB) cytotoxicity assay; conditions: Homo sapiens, PC-3, 72 h
HeLa cells = experiment: DNA fiber assay, replication fork progression; assay type: cell-based, human; conditions: JA2131 10 µM
Description: Normalized % viabilities are plotted against log concentration. Error bars show the percent coefficient of variation. […] Mann-Whitney test was used to generate the p-value. The DNA spread assay is the representation of two independently repeated experiments. Source Data are provided as a Source Data file.

hPARP1 = hPARP1 (Homo sapiens, UniProt P09874); experiment: In vitro PARP1 auto-PARylation; conditions: inhibitor 25 – 100 µM; 25 µM NAD+
hPARP1, sequence (P09874 whole entry): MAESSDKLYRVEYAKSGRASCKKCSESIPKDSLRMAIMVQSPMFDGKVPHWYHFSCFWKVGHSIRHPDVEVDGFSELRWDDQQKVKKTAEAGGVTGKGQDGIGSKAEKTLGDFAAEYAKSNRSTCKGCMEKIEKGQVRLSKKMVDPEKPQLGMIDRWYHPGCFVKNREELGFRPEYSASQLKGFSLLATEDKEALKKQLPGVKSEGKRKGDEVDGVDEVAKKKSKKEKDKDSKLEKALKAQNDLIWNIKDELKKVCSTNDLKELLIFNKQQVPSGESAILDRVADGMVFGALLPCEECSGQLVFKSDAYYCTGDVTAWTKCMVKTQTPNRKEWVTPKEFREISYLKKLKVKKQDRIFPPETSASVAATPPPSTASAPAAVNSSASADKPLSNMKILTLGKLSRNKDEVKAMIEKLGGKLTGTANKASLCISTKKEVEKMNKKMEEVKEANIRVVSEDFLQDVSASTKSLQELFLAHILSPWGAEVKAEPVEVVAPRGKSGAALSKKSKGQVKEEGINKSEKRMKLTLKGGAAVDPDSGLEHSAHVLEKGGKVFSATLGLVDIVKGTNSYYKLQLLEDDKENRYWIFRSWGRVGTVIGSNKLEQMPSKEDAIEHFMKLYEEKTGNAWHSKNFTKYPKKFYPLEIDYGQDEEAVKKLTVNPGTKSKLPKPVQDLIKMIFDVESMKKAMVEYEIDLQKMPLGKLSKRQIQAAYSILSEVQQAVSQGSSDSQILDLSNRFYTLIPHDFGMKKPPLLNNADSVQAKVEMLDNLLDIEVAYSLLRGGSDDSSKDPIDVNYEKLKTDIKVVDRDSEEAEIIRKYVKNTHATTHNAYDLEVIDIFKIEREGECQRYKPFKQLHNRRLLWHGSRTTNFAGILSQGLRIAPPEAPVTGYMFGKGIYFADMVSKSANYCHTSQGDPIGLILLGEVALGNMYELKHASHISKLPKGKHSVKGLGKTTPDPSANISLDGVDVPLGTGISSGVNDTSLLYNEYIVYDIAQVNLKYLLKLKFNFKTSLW

PCNA in PC3 cells = target: T1, PCNA in PC3 cells (Homo sapiens, UniProt P12004); experiment: Cellular thermal shift assay (CETSA), control protein; assay type: cell-based; conditions: 10 μM JA2131
T1 construct: endogenous in cells; host or cells: PC3
T1 sequence (P12004 whole entry): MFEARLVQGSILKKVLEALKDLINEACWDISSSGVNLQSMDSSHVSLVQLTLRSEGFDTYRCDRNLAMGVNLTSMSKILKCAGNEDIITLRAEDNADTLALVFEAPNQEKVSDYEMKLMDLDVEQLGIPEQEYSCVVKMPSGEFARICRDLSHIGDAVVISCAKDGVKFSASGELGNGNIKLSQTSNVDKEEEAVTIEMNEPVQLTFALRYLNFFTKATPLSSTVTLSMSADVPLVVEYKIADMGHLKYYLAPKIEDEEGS
Description: CETSA was performed as described by Molina et al.[44]. Briefly, PC3 cells were treated with 10 μM JA2131 or an equivalent volume of DMSO for 2 h, washed three times with PBS and extracted for total cell lysate. Ten percent glycerol was added to the samples before subjecting to heat. […] Then, samples were centrifuged at 14,000 rpm for 20 min at 4 °C. Supernatants were carefully removed and analyzed by western blotting analysis.
Supplementary Fig. 14: Representative CETSA western blots for PARG and PCNA. PC3 cells
treated with 10 µM JA2131 or DMSO were temperature shocked as described in Materials and […]
PCNA antibody. Anti -Histone H3 was used as loading control.
(1 picture or pasted object on this page, not shown here)

Human PARG = target: T2, Human PARG (Homo sapiens, UniProt Q86W56); experiment: Gel-based PARG activity assay; assay type: biochemical
T2 construct: The human PARG (hPARG) catalytic domain (residues 389–976) was cloned in pET28a (Novagen); His-tag (N); made in house; host or cells: E. coli Rosetta
T2 sequence (Q86W56 389-976): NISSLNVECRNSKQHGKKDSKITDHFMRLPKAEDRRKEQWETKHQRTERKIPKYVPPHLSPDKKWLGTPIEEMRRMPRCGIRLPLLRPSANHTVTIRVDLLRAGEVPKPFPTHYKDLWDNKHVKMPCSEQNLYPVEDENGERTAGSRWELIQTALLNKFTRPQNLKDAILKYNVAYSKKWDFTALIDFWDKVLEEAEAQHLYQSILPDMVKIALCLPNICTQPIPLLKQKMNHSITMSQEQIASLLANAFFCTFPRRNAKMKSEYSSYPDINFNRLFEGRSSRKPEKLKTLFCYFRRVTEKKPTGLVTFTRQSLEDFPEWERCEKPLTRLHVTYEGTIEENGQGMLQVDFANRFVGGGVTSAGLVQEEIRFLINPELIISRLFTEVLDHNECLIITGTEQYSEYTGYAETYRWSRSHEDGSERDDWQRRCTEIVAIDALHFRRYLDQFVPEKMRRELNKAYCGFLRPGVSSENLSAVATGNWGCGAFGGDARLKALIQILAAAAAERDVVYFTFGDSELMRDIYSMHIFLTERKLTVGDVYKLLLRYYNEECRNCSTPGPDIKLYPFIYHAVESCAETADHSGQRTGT
Description: PARP1C (2 μM) is enzymatically auto-modified in a reaction containing the PARP1 DBD (2 μM), a 24 mer nicked DNA oligo (2 μM), and NAD^+ (300 μM) for 1 h at 37 °C, as described previously. Human PARG^389–976 (1 nM) was pre-incubated with compounds for 1 h at room temperature. The reaction was initiated by the addition of PARylated PARP1 (final concentration of 500 nM) and quenched after 30 min incubation at room temperature by adding SDS-PAGE sample buffer. The gel was visualized by sypro-ruby staining[18] and the retained PARylated PARP1C species were quantified using ImageJ[59]. PARylated PARP1C that migrates slower than unmodified PARP1C was quantified. […] The IC50 values were determined by fitting the dose-response data for each compound to a four-parameter logistic equation using SigmaPlot (Systat Software Inc.).
To test the specificity of JA2131, human PARG^389–976 (1 nM) was pre-incubated with JA2131 (5, 10, and 20 μM) in the presence and absence of 0.1% Triton-X 100 or 0.1 mg/ml BSA for 1 h at room temperature. The reaction was initiated, quenched, visualized, and quantified as described above. […]
PARG activity assay. […]
PARP1 (500 nM). The reaction was quenched after a 30 -minu te in cu ba tion a t roo m te mpe ra tu re by adding SDS-PA GE sa mp le bu f fe r. PARylated PARP1C runs as a smear on SDS -PAGE that is reduced to a single band by PARG treatment. […]
2). (b) Qu an t if ica t ion o f the dose-response PARG inhibition by JA2 -3 using the gel-based PARG activity assay. hPARG (1 nM) was preincubated with increasing concentrations (0.032 – 1 µM) of JA2-3 f o r 1 hour at room temperature before PARylated PARP1C (500 nM) was added. The reaction was quenched after a 30-minu te incubation at room temperature. PARylated PARP1C migrates slower than unmodified PARP1C and was quantified using ImageJ. […] The rate of the PARG-dependent signal loss in the TR-FRET PAR turnover assay is not equivalent to the steady-state rate of PAR turnover, because the TR-FRET assay can’t detect signal loss until the length of PAR chains become shorter than 7 ADP-ribose units. Therefore, we used the gel-based PARG activity assay to accurately determine the IC50 values throughout the manuscript .

## Cn1c(=S)c2[nH]c(SCCN3CCOCC3)nc2n(C)c1=O [JA2131]
[1]; +IR 7 Gy
  viability at 72 h, 1.95 µM: 104%
  viability at 72 h, 3.9 µM: 99.5%
  viability at 72 h, 7.8 µM: 103%
  viability at 72 h, 15.6 µM: 96.6%
  viability at 72 h, 31.3 µM: 76.7%
  viability at 72 h, 62.5 µM: 32.5%
  viability at 72 h, 125 µM: 13.6%
  viability at 72 h, 250 µM: 16.8%
  viability at 72 h, 500 µM: 13%
  viability at 72 h, 0.98 µM: 102%
  viability at 72 h, 0.49 µM: 100%
  viability at 72 h, 0.244 µM: 100%
[1]; without IR
  viability at 72 h, 1.95 µM: 97.5%
  viability at 72 h, 3.9 µM: 97.3%
  viability at 72 h, 7.8 µM: 94.1%
  viability at 72 h, 15.6 µM: 88.1%
  viability at 72 h, 31.3 µM: 57.2%
  viability at 72 h, 62.5 µM: 6.73%
  viability at 72 h, 125 µM: 4.07%
  viability at 72 h, 250 µM: 4.3%
  viability at 72 h, 500 µM: 4.21%
  viability at 72 h, 0.98 µM: 99.2%
  viability at 72 h, 0.49 µM: 98.7%
  viability at 72 h, 0.244 µM: 100%
PC3 cells; with 7 Gy IR
  IC50: 41.6 ± 3 µM
PC3 cells; without IR
  IC50: 33 ± 2.4 µM
HeLa cells; 2 h pretreatment, no genotoxic stress
  average IdU tract: 6.0 μm
HeLa cells; low-dose hydroxyurea
  average IdU tract length: 5.0 μm
hPARP1
  inhibition of PARP1 activation (PAR synthesis): did not inhibit PARP1 activation up to 100 μM
PCNA in PC3 cells
  change in thermal stability of PCNA control: no significant change in thermal stability
PCNA in PC3 cells; Temperature 4 °C
  Band intensities, anti-PCNA: 100
PCNA in PC3 cells; Temperature 51 °C
  Band intensities, anti-PCNA: 91.1484
PCNA in PC3 cells; Temperature 62 °C
  Band intensities, anti-PCNA: 38.4112
PCNA in PC3 cells; Temperature 68 °C
  Band intensities, anti-PCNA: 12.3183
PCNA in PC3 cells; Temperature 72 °C
  Band intensities, anti-PCNA: 4.285
PCNA in PC3 cells; Temperature 77 °C
  Band intensities, anti-PCNA: 3.2332
PCNA in PC3 cells; Temperature 85 °C
  Band intensities, anti-PCNA: 4.145
Human PARG
  potency difference JA2131 (6´-thiocarbonyl) vs JA2120 (6´-carbonyl): more than 50 fold
Human PARG; JA2131 5, 10, 20 μM, 0.1% Triton-X 100 or 0.1 mg/ml BSA
  effect of detergent or nonspecific protein on PARG inhibition: Neither the addition of Triton-X 100 nor BSA significantly altered the inhibitory potency
Human PARG; [L] 0.0488281 uM
  inhibition at 0.0488281 µM: 13.8%
Human PARG; [L] 0.0976562 uM
  inhibition at 0.0976562 µM: 26.2%
Human PARG; [L] 0.195312 uM
  inhibition at 0.195312 µM: 34.6%
Human PARG; [L] 0.390625 uM
  inhibition at 0.390625 µM: 58.8%
Human PARG; [L] 0.78125 uM
  inhibition at 0.78125 µM: 62.5%
Human PARG; [L] 1.5625 uM
  inhibition at 1.5625 µM: 75.5%
Human PARG; [L] 3.125 uM
  inhibition at 3.125 µM: 84.3%
Human PARG; [L] 6.25 uM
  inhibition at 6.25 µM: 98.7%
Human PARG; [L] 12.5 uM
  inhibition at 12.5 µM: 99.5%
Human PARG; [L] 25 uM
  inhibition at 25 µM: 104%
Human PARG; [L] 50 uM
  inhibition at 50 µM: 94%
Human PARG; hPARG 1 nM, PARylated PARP1C 500 nM, 30 min
  IC50: 400 nM
